This test deals with T1, CILK1 (Homo sapiens, UniProt Q9UPZ9).
T1 construct: purchased protein (Abcam ab101774)
T1 sequence (Q9UPZ9 1-632): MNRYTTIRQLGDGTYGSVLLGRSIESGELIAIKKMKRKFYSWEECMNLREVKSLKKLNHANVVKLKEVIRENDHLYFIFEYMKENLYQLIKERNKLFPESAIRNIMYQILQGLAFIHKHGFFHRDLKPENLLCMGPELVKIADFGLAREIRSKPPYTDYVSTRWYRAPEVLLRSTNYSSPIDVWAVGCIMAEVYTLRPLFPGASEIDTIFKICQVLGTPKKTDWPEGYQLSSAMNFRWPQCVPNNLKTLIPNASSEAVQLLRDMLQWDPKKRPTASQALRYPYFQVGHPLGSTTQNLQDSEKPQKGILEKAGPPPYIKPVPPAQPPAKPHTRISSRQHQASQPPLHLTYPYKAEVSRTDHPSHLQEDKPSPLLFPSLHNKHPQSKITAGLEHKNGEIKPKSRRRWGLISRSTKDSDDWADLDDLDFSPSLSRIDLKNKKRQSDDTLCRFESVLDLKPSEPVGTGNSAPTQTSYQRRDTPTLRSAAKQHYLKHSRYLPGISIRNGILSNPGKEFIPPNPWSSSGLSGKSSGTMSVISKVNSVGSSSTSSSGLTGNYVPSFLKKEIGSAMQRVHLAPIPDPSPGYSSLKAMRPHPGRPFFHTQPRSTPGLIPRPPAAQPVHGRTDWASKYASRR
The test is described as follows: surface plasmon resonance, […] Langmuir fit. Type of test: binding. As to conditions: 3D Dextran chip; 1.5625-25 μM analyte. (Surface plasmon resonance follows binding to a sensor surface in real time, without labels.)

The structures appear in SMILES notation.

Broadly, the Kd is the concentration at which binding is half-saturated. A high value points to lower affinity.

With `CCc1ccc2nc(Nc3nc(C)c(Cc4ccc(C)cc4)c(=O)[nH]3)nc(C)c2c1` [CILK1-C30], the Kd is 108 nM.

Source of the values: paper PMC11077371, “Ciliogenesis-associated Kinase 1 Promotes Breast Cancer Cell Proliferation and Chemoresistance via Phosphorylating ERK1” (International Journal of Biological Sciences, 2024).
